Data as given in patent US6706663B2, “Herbicidal 3-heterocyclic substituted benzisothiazole and benzisoxazole compounds” (Wyeth, priority 2000, dated 2004).

Assays:
[1] = tested on: ABUTH (Abutilon theophrasti); assay: Postemergence herbicidal evaluation; assay type: in vivo, Medic.; conditions: for ABUTH herbicidal rating: postemergence
Summary of the method: (§1)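 Seedlings grown for about two weeks were sprayed postemergence and then kept under standard greenhouse care. Injury was rated visually 4–5 weeks after treatment on a 0–9 scale against untreated controls, and ratings from repeat tests were averaged.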

[2] = tested on: GALAP (Galium aparine); assay: Postemergence herbicidal evaluation; assay type: in vivo; conditions: for GALAP herbicidal rating: postemergence
Summary of the method: as §1

[3] = tested on: IPOHE (Ipomoea hederacea); assay: Postemergence herbicidal evaluation; assay type: in vivo, (L.) Jacq.; conditions: for IPOHE herbicidal rating: postemergence
Summary of the method: as §1

[4] = tested on: ECHCG (Echinochloa crus-galli); assay: Postemergence herbicidal evaluation; assay type: in vivo, (L.) Beau; conditions: for ECHCG herbicidal rating: postemergence
Summary of the method: as §1

[5] = tested on: SETVI (Setaria viridis); assay: Postemergence herbicidal evaluation; assay type: in vivo, (L.) Beau; conditions: for SETVI herbicidal rating: postemergence
Summary of the method: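 Visual injury score (0-9: stand, vigor, malformation, size, chlorosis, overall appearance vs untreated control) taken four to five weeks post-spray. Two-week-old seedlings received about 0.0040 to 1.000 kg/ha active compound in acetone/water with 0.5% TWEEN 20.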

[6] = tested on: GLXMAW (Soybean, Williams); assay: Postemergence herbicidal evaluation; assay type: in vivo, Glycine max, (L.) Merr. cv Williams; conditions: for GLXMAW herbicidal rating: postemergence
Summary of the method: as §1

[7] = tested on: ORYSAT (Rice, Tebonnet); assay: Postemergence herbicidal evaluation; assay type: in vivo, Oryza sativa, (L.) Tebonnet; conditions: for ORYSAT herbicidal rating: postemergence
Summary of the method: as §1

[8] = tested on: ZEAMX (Corn, Field); assay: Postemergence herbicidal evaluation; assay type: in vivo, Zea mays, L.; conditions: for ZEAMX herbicidal rating: postemergence
Summary of the method: as §1

[9] = tested on: AMBEL (Ambrosia artemisifolia); assay: Preemergence herbicidal evaluation; assay type: in vivo, L.; conditions: rated 4-5 weeks after treatment
Summary of the method: (§2)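 Each species was sown separately in potting soil over roughly one inch of soil, and the surface sprayed with compound dissolved in aqueous acetone. Assessment used a 0–9 visual scale against a control after four to five weeks.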

[10] = tested on: CASOB (Cassia obtusifolia); assay: Preemergence herbicidal evaluation; assay type: in vivo, L.; conditions: rated 4-5 weeks after treatment
Summary of the method: as §2

[11] = tested on: CHEAL (Chenopodium album); assay: Preemergence herbicidal evaluation; assay type: in vivo, L.; conditions: rated 4-5 weeks after treatment
Summary of the method: as §2

[12] = tested on: IPOHE (Ipomoea hederacea); assay: Preemergence herbicidal evaluation; assay type: in vivo, (L.) Jacq.; conditions: rated 4-5 weeks after treatment
[13] = tested on: ECHCG (Echinochloa crus-galli); assay: Preemergence herbicidal evaluation; assay type: in vivo, (L.) Beau; conditions: rated 4-5 weeks after treatment
Summary of the method: as §2

[14] = tested on: SETVI (Setaria viridis); assay: Preemergence herbicidal evaluation; assay type: in vivo, (L.) Beau; conditions: rated 4-5 weeks after treatment
Summary of the method: as §2

[15] = tested on: ORYSAT (Rice, Tebonnet); assay: Preemergence herbicidal evaluation; assay type: in vivo, Oryza sativa, (L.) Tebonnet; conditions: rated 4-5 weeks after treatment
[16] = tested on: ECHORC (Echinochloa oryzoides); assay: Flooded paddy, preemergence weed control; assay type: in vivo, Echinochloa oryzoides (Ard.) Fritsch.; conditions: rated 3-4 weeks after treatment, 0-9 rating scale
Summary of the method: (§3)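 Plants were established from seed or propagating organs in flooded silt loam, with the water surface held 1.5 to 3 cm above the soil for the entire experiment. Injury was assessed visually against a control and given a 0-9 score.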

[17] = tested on: CYPIR (Cyperus iria); assay: Flooded paddy, preemergence weed control; assay type: in vivo; conditions: rated 3-4 weeks after treatment, 0-9 rating scale
Summary of the method: as §3

[18] = tested on: MOOVA (Monochoria vaginalis); assay: Flooded paddy, preemergence weed control; assay type: in vivo, Presl.; conditions: rated 3-4 weeks after treatment, 0-9 rating scale
Summary of the method: as §3

[19] = tested on: SAGPY (Sagittaria pygmaea); assay: Flooded paddy, preemergence weed control; assay type: in vivo, L.; conditions: rated 3-4 weeks after treatment, 0-9 rating scale
Summary of the method: as §3

[20] = tested on: ORYSAT (Rice, Tebonnet); assay: Flooded paddy, post-transplant rice tolerance; assay type: in vivo, Oryza sativa, (L.) Tebonnet; conditions: flooded paddy, post-transplant rice, rated 3-4 weeks after treatment, 0-9 rating scale
Summary of the method: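 Visual 0-9 rating against a control, covering stand, vigor, malformation, size, chlorosis and overall appearance. Treatment was applied after transplanting paired ten-day-old seedlings into flooded silt loam, with water kept 1.5 to 3 cm deep on greenhouse benches.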

Cc1cc(C)c(-c2nsc3ccc(-n4c(=O)cc(C(F)(F)F)n(C)c4=O)cc23)s1 [Compound 27, 3-[3-(3,5-dimethyl-2-thienyl)-1,2-benzisothiazol-5-yl]-1-methyl-6-(trifluoromethyl)uracil]
4.0: Postemergence herbicidal rating, GALAP ([2]; rate 0.0620 kg/ha) | Postemergence herbicidal rating, ECHCG ([4]; rate 0.0320 kg/ha) | CASOB preemergence herbicidal rating ([10]; Rate 0.2500 kg/ha) | IPOHE preemergence herbicidal rating ([12]; Rate 0.1250 kg/ha)
3.0: IPOHE preemergence herbicidal rating ([12]; Rate 0.2500 kg/ha)
2.0: Postemergence herbicidal rating, GALAP ([2]; rate 0.0320 kg/ha) | ORYSAT preemergence herbicidal rating ([15]; Rate 0.1250 kg/ha) | herbicidal rating, ORYSAT (rice tolerance) ([20]; rate 0.0320 kg/ha)
6.0: Postemergence herbicidal rating, GLXMAW ([6]; rate 0.0620 kg/ha) | ECHCG preemergence herbicidal rating ([13]; Rate 0.0620 kg/ha) | herbicidal rating, MOOVA ([18]; rate 0.0080 kg/ha)
8.3: herbicidal rating, SAGPY ([19]; rate 0.1250 kg/ha)
7.0: Postemergence herbicidal rating, SETVI ([5]; rate 0.0320 kg/ha) | ECHCG preemergence herbicidal rating ([13]; Rate 0.1250 kg/ha) | ECHCG preemergence herbicidal rating ([13]; Rate 0.2500 kg/ha)
6.5: Postemergence herbicidal rating, GLXMAW ([6]; rate 0.0320 kg/ha) | herbicidal rating, ECHORC ([16]; rate 0.0080 kg/ha)
0.0: herbicidal rating, SAGPY ([19]; rate 0.0080 kg/ha)
9.0: Postemergence herbicidal rating, ABUTH ([1]; rate 0.0320 kg/ha) | Postemergence herbicidal rating, ABUTH ([1]; rate 0.0620 kg/ha) | Postemergence herbicidal rating, IPOHE ([3]; rate 0.0320 kg/ha) | Postemergence herbicidal rating, IPOHE ([3]; rate 0.0620 kg/ha) | Postemergence herbicidal rating, SETVI ([5]; rate 0.0620 kg/ha) | AMBEL preemergence herbicidal rating ([9]; Rate 0.2500 kg/ha) | CHEAL preemergence herbicidal rating ([11]; Rate 0.0620 kg/ha) | CHEAL preemergence herbicidal rating ([11]; Rate 0.1250 kg/ha) | CHEAL preemergence herbicidal rating ([11]; Rate 0.2500 kg/ha) | SETVI preemergence herbicidal rating ([14]; Rate 0.0620 kg/ha) | SETVI preemergence herbicidal rating ([14]; Rate 0.1250 kg/ha) | SETVI preemergence herbicidal rating ([14]; Rate 0.2500 kg/ha) | herbicidal rating, ECHORC ([16]; rate 0.0320 kg/ha) | herbicidal rating, ECHORC ([16]; rate 0.1250 kg/ha) | herbicidal rating, CYPIR ([17]; rate 0.0320 kg/ha) | herbicidal rating, CYPIR ([17]; rate 0.1250 kg/ha) | herbicidal rating, MOOVA ([18]; rate 0.0320 kg/ha) | herbicidal rating, MOOVA ([18]; rate 0.1250 kg/ha)
3.7: herbicidal rating, ORYSAT (rice tolerance) ([20]; rate 0.1250 kg/ha)
5.0: Postemergence herbicidal rating, ECHCG ([4]; rate 0.0620 kg/ha) | Postemergence herbicidal rating, ZEAMX ([8]; rate 0.0320 kg/ha) | Postemergence herbicidal rating, ZEAMX ([8]; rate 0.0620 kg/ha) | AMBEL preemergence herbicidal rating ([9]; Rate 0.0620 kg/ha) | AMBEL preemergence herbicidal rating ([9]; Rate 0.1250 kg/ha) | CASOB preemergence herbicidal rating ([10]; Rate 0.1250 kg/ha)
4.5: Postemergence herbicidal rating, ORYSAT ([7]; rate 0.0320 kg/ha) | Postemergence herbicidal rating, ORYSAT ([7]; rate 0.0620 kg/ha) | herbicidal rating, CYPIR ([17]; rate 0.0080 kg/ha)
1.0: CASOB preemergence herbicidal rating ([10]; Rate 0.0620 kg/ha) | ORYSAT preemergence herbicidal rating ([15]; Rate 0.0620 kg/ha) | ORYSAT preemergence herbicidal rating ([15]; Rate 0.2500 kg/ha) | herbicidal rating, ORYSAT (rice tolerance) ([20]; rate 0.0080 kg/ha)
1.7: herbicidal rating, SAGPY ([19]; rate 0.0320 kg/ha)

CCCC1COC(c2nsc3ccc(-n4c(=O)cc(C(F)(F)F)n(C)c4=O)cc23)O1 (stereo not shown) [Compound 77, 1-methyl-3-[3-(4-propyl-1,3-dioxolan-2-yl)-1,2-benzisothiazol-5-yl]-6-(trifluoromethyl)uracil]
7.0: GALAP herbicidal rating ([2]; rate 0.0620 kg/ha) | herbicidal rating, CYPIR ([17]; rate 0.0320 kg/ha) | herbicidal rating, ORYSAT (rice tolerance) ([20]; rate 0.1250 kg/ha)
5.0: SETVI herbicidal rating ([5]; rate 0.0620 kg/ha) | Preemergence herbicidal rating ORYSAT ([15]; Rate 0.0620 kg/ha) | Preemergence herbicidal rating ORYSAT ([15]; Rate 0.1250 kg/ha) | herbicidal rating, ECHORC ([16]; rate 0.0320 kg/ha) | herbicidal rating, SAGPY ([19]; rate 0.1250 kg/ha)
5.5: Preemergence herbicidal rating ORYSAT ([15]; Rate 0.2500 kg/ha)
4.5: Preemergence herbicidal rating CASOB ([10]; Rate 0.1250 kg/ha)
0.0: herbicidal rating, ECHORC ([16]; rate 0.0080 kg/ha) | herbicidal rating, CYPIR ([17]; rate 0.0080 kg/ha) | herbicidal rating, MOOVA ([18]; rate 0.0080 kg/ha) | herbicidal rating, SAGPY ([19]; rate 0.0080 kg/ha) | herbicidal rating, SAGPY ([19]; rate 0.0320 kg/ha) | herbicidal rating, ORYSAT (rice tolerance) ([20]; rate 0.0080 kg/ha)
8.5: GLXMAW herbicidal rating ([6]; rate 0.0620 kg/ha) | Preemergence herbicidal rating AMBEL ([9]; Rate 0.0620 kg/ha) | Preemergence herbicidal rating ECHCG ([13]; Rate 0.0620 kg/ha) | Preemergence herbicidal rating SETVI ([14]; Rate 0.0620 kg/ha)
2.5: Preemergence herbicidal rating CASOB ([10]; Rate 0.0620 kg/ha)
3.5: ZEAMX herbicidal rating ([8]; rate 0.0620 kg/ha)
9.0: ABUTH herbicidal rating ([1]; rate 0.0320 kg/ha) | ABUTH herbicidal rating ([1]; rate 0.0620 kg/ha) | IPOHE herbicidal rating ([3]; rate 0.0320 kg/ha) | IPOHE herbicidal rating ([3]; rate 0.0620 kg/ha) | SETVI herbicidal rating ([5]; rate 0.0320 kg/ha) | Preemergence herbicidal rating AMBEL ([9]; Rate 0.1250 kg/ha) | Preemergence herbicidal rating AMBEL ([9]; Rate 0.2500 kg/ha) | Preemergence herbicidal rating CHEAL ([11]; Rate 0.0620 kg/ha) | Preemergence herbicidal rating CHEAL ([11]; Rate 0.1250 kg/ha) | Preemergence herbicidal rating CHEAL ([11]; Rate 0.2500 kg/ha) | Preemergence herbicidal rating ECHCG ([13]; Rate 0.1250 kg/ha) | Preemergence herbicidal rating ECHCG ([13]; Rate 0.2500 kg/ha) | Preemergence herbicidal rating SETVI ([14]; Rate 0.1250 kg/ha) | Preemergence herbicidal rating SETVI ([14]; Rate 0.2500 kg/ha) | herbicidal rating, ECHORC ([16]; rate 0.1250 kg/ha) | herbicidal rating, CYPIR ([17]; rate 0.1250 kg/ha) | herbicidal rating, MOOVA ([18]; rate 0.0320 kg/ha) | herbicidal rating, MOOVA ([18]; rate 0.1250 kg/ha)
4.0: GALAP herbicidal rating ([2]; rate 0.0320 kg/ha) | ECHCG herbicidal rating ([4]; rate 0.0320 kg/ha) | ECHCG herbicidal rating ([4]; rate 0.0620 kg/ha) | ORYSAT herbicidal rating ([7]; rate 0.0620 kg/ha) | Preemergence herbicidal rating IPOHE ([12]; Rate 0.1250 kg/ha)
2.0: ORYSAT herbicidal rating ([7]; rate 0.0320 kg/ha)
3.0: ZEAMX herbicidal rating ([8]; rate 0.0320 kg/ha) | Preemergence herbicidal rating IPOHE ([12]; Rate 0.0620 kg/ha) | herbicidal rating, ORYSAT (rice tolerance) ([20]; rate 0.0320 kg/ha)
7.5: GLXMAW herbicidal rating ([6]; rate 0.0320 kg/ha) | Preemergence herbicidal rating CASOB ([10]; Rate 0.2500 kg/ha) | Preemergence herbicidal rating IPOHE ([12]; Rate 0.2500 kg/ha)
